Laboratory results as given in paper PMC6778101 (Nature Communications, 2019).
“Also recorded” adds a separate entry of the source. Read-outs that look alike come from different tables or passages of the source. Ends that are not written are not given here. Peptide text beside a SMILES is read from it.

Columns and labels:
E. coli K-12 BW25113 = assay: Laboratory evolution of resistance, MIC fold change of adapted lines; type: cell-based, Escherichia coli; conditions: for MIC fold change following 20 transfers: Escherichia coli K-12 BW25113; for MIC fold change after the evolution: MIC evolved / MIC control, 20 transfers, ~120 generations
Excerpt: Our first goal was to study resistance evolution against a set of AMPs and antibiotics. We have followed established protocols with minor modifications to evolve bacterial populations under controlled laboratory conditions[19],[20]. The applied protocol aims to maximize the level of drug resistance in the evolving populations achieved during a fixed time period. We have initiated a laboratory evolution experiment, starting with a single clone of Escherichia coli K-12 BW25113 (abbreviated as E. coli K-12 BW25113). Parallel evolving populations were exposed to increasing concentrations of one of 14 AMPs (Supplementary Table 1). Peptides were chosen based on the following criteria: diverse sources (synthetic/natural), different putative mechanisms of action, structural diversity, and clinical relevance. Another set of populations were exposed to one of 12 clinically relevant antibiotics (Supplementary Table 2), using the same protocol. Accordingly, we have propagated 10 independent populations in the presence of each AMP or antibiotic for ∼120 generations. We isolated a single, representative clone from each population, resulting in 140 AMP-adapted lines and 120 antibiotic-adapted lines. Throughout the paper, we compare the level of resistance in the evolved lines to the corresponding wild-type strain by measuring changes in the drugs’ minimum inhibitory concentrations (MIC).
(§1) The evolutionary protocol was designed to avoid population extinction and to ensure that populations with the highest level of resistance were propagated further. Starting with a subinhibitory drug concentration (Supplementary Data 8), resulting in ~50% growth inhibition, 10 parallel populations per drug were allowed to grow in Minimal Salts medium for 72 h and 300 r.p.m. E. coli K-12 BW25113 and E. coli mutD5 populations were incubated at 30 °C, while E. coli ATCC 25922, S. enterica LT2, K. pneumonia ATCC 10031, and A. baumannii ATCC 17978 were incubated at 37 °C. […] Prior to each transfer, cell growth was monitored by measuring the optical density at 600 nm (OD600 value, Biotek Synergy 2 microplate reader). Only populations with the highest drug concentration (and reaching OD600 > 0.2) were selected for further evolution. A chess-board layout was used on the plate to monitor potential cross-contamination events. […] E. coli mutD5 was adapted to TPII, also in 10 parallel evolving populations.
(§2) MICs were determined using a standard serial broth dilution technique. Briefly, 11-step serial dilutions were prepared in 96-well microtiter plates with three replicates per strain and antimicrobial compound. Each experiment was repeated at least twice. 5 × 10^5 cells/mL were inoculated into each well, and the plates were incubated at 30 °C in case of E. coli K-12 BW25113, and its antibiotic and AMP-adapted lines, or 37 °C in case of the other bacterial species. Plates were shaken at 300 r.p.m. during incubation for 24 and 18 h, respectively. Cell growth was monitored by measuring the optical density (OD600 value, Biotek Synergy 2 microplate reader was used for this purpose). […] Relative MIC was calculated as follows: MICrelative = MICevolved/MICcontrol.

E. coli mutD5 = assay: Laboratory evolution of resistance in mutator strain, MIC fold change; type: cell-based, Escherichia coli; conditions: for MIC fold change after the evolution: mutD5 mutator strain (*)
Excerpt: (§3) Unless otherwise indicated, we used E. coli K-12 BW25113 in all high-throughput experiments. To investigate the impact of mutation rate on evolution of AMP resistance, we initiated laboratory evolution with a mutator strain E. coli mutD5 that carries mutations in the dnaQ gene (L73W and A164V).
as §1, §2

S. enterica LT2 [1] = type: cell-based, Salmonella enterica subsp. enterica serovar Typhimurium; conditions: broth dilution, 37 °C, 18 h
Protocol: as §3, §2

S. enterica LT2 [2] = assay: Laboratory evolution of resistance, MIC fold change of adapted lines; type: cell-based, Salmonella enterica subsp. enterica serovar Typhimurium; conditions: Salmonella enterica serovar Typhimurium LT2; parallel line 1 of 10
Excerpt: The tested pathogens initially sensitive to the AMPs and the antibiotics included Escherichia coli (ATCC® 25922™) (abbreviated as E. coli ATCC 25922), Salmonella enterica subsp. enterica serovar Typhimurium LT2 (abbreviated as S. enterica LT2), Klebsiella pneumoniae subsp. pneumoniae (Schroeter) Trevisan (ATCC® 10031™) (abbreviated as K. pneumoniae ATCC 10031) and Acinetobacter baumannii Bouvet and Grimont (ATCC® 17978™) (abbreviated as A. baumannii ATCC 17978).
The evolutionary protocol was designed to avoid population extinction and to ensure that populations with the highest level of resistance were propagated further. Starting with a subinhibitory drug concentration (Supplementary Data 8), resulting in ~50% growth inhibition, 10 parallel populations per drug were allowed to grow in Minimal Salts medium for 72 h and 300 r.p.m. […] Prior to each transfer, cell growth was monitored by measuring the optical density at 600 nm (OD600 value, Biotek Synergy 2 microplate reader). […]
MICs were determined using a standard serial broth dilution technique. […] Cell growth was monitored by measuring the optical density (OD600 value, Biotek Synergy 2 microplate reader was used for this purpose). […] Relative MIC was calculated as follows: MICrelative = MICevolved/MICcontrol.

[3] = test system: E. coli K-12 BW25113 carrying single mutations; assay: MIC change in single-mutation strains (basS L194R, mlaD a342del, waaY M1†); type: cell-based, Escherichia coli
[4] = test system: Enterobacter cloacae subsp. cloacae ATCC 13047; type: cell-based; conditions: broth dilution, 37 °C, 18 h
Protocol: as §3, §2

[5] = test system: Klebsiella pneumoniae subsp. pneumoniae ATCC 700603; type: cell-based; conditions: broth dilution, 37 °C, 18 h
Protocol: as §3, §2

[6] = test system: Escherichia coli ATCC 35218; type: cell-based; conditions: broth dilution, 37 °C, 18 h
Protocol: as §3, §2

[7] = test system: Escherichia coli ATCC BAA 2340; type: cell-based; conditions: broth dilution, 37 °C, 18 h
Protocol: as §3, §2

[8] = test system: Enterococcus faecium ATCC 700221; type: cell-based; conditions: broth dilution, 37 °C, 18 h
Protocol: as §3, §2

[9] = test system: Pseudomonas aeruginosa ATCC 27853; type: cell-based; conditions: broth dilution, 37 °C, 18 h
Protocol: as §3, §2

[10] = test system: Klebsiella pneumoniae NCTC 13440; type: cell-based; conditions: broth dilution, 37 °C, 18 h
Protocol: as §3, §2

[11] = test system: Staphylococcus aureus subsp. aureus ATCC 25923; type: cell-based; conditions: broth dilution, 37 °C, 18 h
Protocol: as §3, §2

A. baumannii ATCC 17978 = type: cell-based, Acinetobacter baumannii; conditions: Acinetobacter baumannii ATCC 17978; broth dilution, 37 °C, 18 h
Protocol: as §3, §2

[12] = parallel line 1 of 10 adapted to the agent

## NC[C@H]1O[C@H](O[C@H]2[C@H](O)[C@@H](O[C@H]3O[C@H](CO)[C@@H](O)[C@H](N)[C@H]3O)[C@H](N)C[C@@H]2N)[C@H](O)[C@@H](O)[C@@H]1O [KAN, Kanamycin]
E. coli K-12 BW25113; [12]
  MIC fold change following 20 transfers: 256 fold
E. coli K-12 BW25113; parallel line 2 of 10 adapted to the agent
  MIC fold change following 20 transfers: 256 fold
E. coli K-12 BW25113; parallel line 3 of 10 adapted to the agent
  MIC fold change following 20 transfers: 177 fold
E. coli K-12 BW25113; parallel line 4 of 10 adapted to the agent
  MIC fold change following 20 transfers: 177 fold
E. coli K-12 BW25113; parallel line 5 of 10 adapted to the agent
  MIC fold change following 20 transfers: 93 fold
E. coli K-12 BW25113; parallel line 6 of 10 adapted to the agent
  MIC fold change following 20 transfers: 256 fold
E. coli K-12 BW25113; parallel line 7 of 10 adapted to the agent
  MIC fold change following 20 transfers: 256 fold
E. coli K-12 BW25113; parallel line 8 of 10 adapted to the agent
  MIC fold change following 20 transfers: 49 fold
E. coli K-12 BW25113; parallel line 9 of 10 adapted to the agent
  MIC fold change following 20 transfers: 177 fold
E. coli K-12 BW25113; parallel line 10 of 10 adapted to the agent
  MIC fold change following 20 transfers: 93 fold
E. coli K-12 BW25113; parallel-evolved line 1
  MIC fold change after the evolution: 256
E. coli K-12 BW25113; parallel-evolved line 2
  MIC fold change after the evolution: 256
E. coli K-12 BW25113; parallel-evolved line 3
  MIC fold change after the evolution: 177
E. coli K-12 BW25113; parallel-evolved line 4
  MIC fold change after the evolution: 177
E. coli K-12 BW25113; parallel-evolved line 5
  MIC fold change after the evolution: 93
E. coli K-12 BW25113; parallel-evolved line 6
  MIC fold change after the evolution: 256
E. coli K-12 BW25113; parallel-evolved line 7
  MIC fold change after the evolution: 256
E. coli K-12 BW25113; parallel-evolved line 8
  MIC fold change after the evolution: 49
E. coli K-12 BW25113; parallel-evolved line 9
  MIC fold change after the evolution: 177
E. coli K-12 BW25113; parallel-evolved line 10
  MIC fold change after the evolution: 93

## CC[C@H](C)[C@@H]1NC(=O)CNC(=O)[C@H](CCCNC(=N)N)NC(=O)[C@H](Cc2ccc(O)cc2)NC(=O)[C@@H]2CSSC[C@H](NC1=O)C(=O)N[C@@H](Cc1ccc(O)cc1)C(=O)N[C@@H](CCCNC(=N)N)C(=O)N[C@@H](CCCCN)C(=O)N[C@H](C(=O)N[C@@H](CCCNC(=N)N)C(N)=O)CSSC[C@H](NC(=O)[C@H](Cc1c[nH]c3ccccc13)NC(=O)[C@@H](N)CCCNC(=N)N)C(=O)N[C@@H](Cc1ccccc1)C(=O)N[C@@H](CCCNC(=N)N)C(=O)N[C@@H](C(C)C)C(=O)N2 [TPII, tachyplesin II] (HELM PEPTIDE1{R.W.C.F.R.V.C.Y.R.G.I.C.Y.R.K.C.R.[am]}$PEPTIDE1,PEPTIDE1,3:R3-16:R3|PEPTIDE1,PEPTIDE1,7:R3-12:R3$$$V2.0; N-terminus and C-terminus assumed; bridges inferred)
E. coli mutD5; 10 laboratory evolved E. coli K-12 mutD5 populations
  resistance in evolved mutator populations (in words): none of the 10 laboratory evolved mutator E. coli K-12 mutD5 populations displayed resistance; also recorded: failed to develop resistance
E. coli mutD5; Escherichia coli mutD5 mutator strain, parallel line 1 of 10
  MIC fold change following 20 transfers: 1.4 fold
E. coli mutD5; parallel-evolved line 1
  MIC fold change after the evolution: 1
E. coli mutD5; parallel-evolved line 2
  MIC fold change after the evolution: 1
E. coli mutD5; parallel-evolved line 3
  MIC fold change after the evolution: 1
E. coli mutD5; parallel-evolved line 4
  MIC fold change after the evolution: 1
E. coli mutD5; parallel-evolved line 5
  MIC fold change after the evolution: 1
E. coli mutD5; parallel-evolved line 6
  MIC fold change after the evolution: 1
E. coli mutD5; parallel-evolved line 7
  MIC fold change after the evolution: 1
E. coli mutD5; parallel-evolved line 8
  MIC fold change after the evolution: 1
E. coli mutD5; parallel-evolved line 9
  MIC fold change after the evolution: 1
E. coli mutD5; parallel-evolved line 10
  MIC fold change after the evolution: 1
E. coli K-12 BW25113; [12]
  MIC fold change following 20 transfers: 1.0 fold
E. coli K-12 BW25113; average of MIC fold change of the 10 independently adapted populations
  average MIC fold change after the evolution: 1.000
E. coli K-12 BW25113; parallel-evolved line 1
  MIC fold change after the evolution: 1
E. coli K-12 BW25113; parallel-evolved line 2
  MIC fold change after the evolution: 1
E. coli K-12 BW25113; parallel-evolved line 3
  MIC fold change after the evolution: 1
E. coli K-12 BW25113; parallel-evolved line 4
  MIC fold change after the evolution: 1
E. coli K-12 BW25113; parallel-evolved line 5
  MIC fold change after the evolution: 1
E. coli K-12 BW25113; parallel-evolved line 6
  MIC fold change after the evolution: 1
E. coli K-12 BW25113; parallel-evolved line 7
  MIC fold change after the evolution: 1
E. coli K-12 BW25113; parallel-evolved line 8
  MIC fold change after the evolution: 1
E. coli K-12 BW25113; parallel-evolved line 9
  MIC fold change after the evolution: 1
E. coli K-12 BW25113; parallel-evolved line 10
  MIC fold change after the evolution: 1
E. coli K-12 BW25113; ~120 generations under increasing drug concentration
  resistance in evolved lines after laboratory evolution (in words): failed to detect any resistance
S. enterica LT2 [1]; starting strain, MS medium
  MIC: 4 µg/mL
S. enterica LT2 [2]
  MIC fold change following 20 transfers: 1.0 fold
[3]; mutations inserted individually into E. coli K-12 BW25113
  resistance conferred by single mutations basS L194R, mlaD a342del, waaY M1† (in words): no resistance
[3]; strain with reinserted mutation basS L194R (CTG→CGG)
  Relative MIC compared to the wild-type: 1.0
[3]; strain with reinserted mutation mlaD a342del
  Relative MIC compared to the wild-type: 1.0
[3]; strain with reinserted mutation waaY M1† (ATG→CTG)
  Relative MIC compared to the wild-type: 1.0

## SWLSKTAKKLENSAKKRISEGIAIAIQGGPR [CP1, Cecropin P1]
[4]
  MIC: > 9.6 µM
[5]
  MIC: 2.4 µM
[6]
  MIC: 1.2 µM
[7]
  MIC: 1.2 µM
[8]
  MIC: > 9.6 µM
[9]
  MIC: 2.4 µM
[10]
  MIC: 1.2 µM
[11]
  MIC: > 9.6 µM
A. baumannii ATCC 17978
  MIC: 0.6 to 1.2 µM
S. enterica LT2 [1]; Salmonella enterica subsp. enterica serovar Typhimurium LT2
  MIC: 1.2 to 2.4 µM
